Assay results from BindingDB's records for doi:10.1021/acs.jnatprod.5b00508 (Korea University, 2015).

What was measured:
[1] = Inhibition of amyloid beta (25 to 35 residues) (unknown origin) aggregate-induced toxicity in rat PC12 cells preincubated for 1 hr followed by amyloid beta challenge measured after 24 hrs by MTT assay
[2] = Inhibition of amyloid beta (1 to 42 residues) (unknown origin) aggregate-induced toxicity in rat PC12 cells assessed as cell viability at 4 to 100 ug/ml pre-incubated for 24 hrs with Abeta ( 1 to 42) followed by compound-Abeta (1 to 42) mixture addition to cells and measured after 24 hrs by MTT assay

SMILES	EC50 [1]	EC50 [2]
C[C@H]1CN2C[C@]34C[C@@]5(C(=O)Nc6c5ccc5c6C=CC(C)(C)O5)C(C)(C)[C@@H]3C[C@@]2(C1)C(=O)N4C	> 300 µM	–
C[C@@H]1C[C@@]23C[C@H]4C(C)(C)[C@@]5(C[C@]4(CN2C1=O)N(C)C3=O)C(=O)Nc1c5ccc2c1C=CC(C)(C)O2	> 300 µM	–
C[C@@H]1C[C@@]23C[C@H]4C(C)(C)[C@@]5(C[C@]4(CN2C1=O)NC3=O)C(=O)Nc1c5ccc2c1C=CC(C)(C)O2	> 300 µM	97.9 µM
O=C(/C=C/c1ccc(O)c(O)c1)O[C@H](Cc1ccc(O)c(O)c1)C(=O)O [Rosmarinic acid, 2]	68.1 µM	57.2 µM
C[C@@H]1C[C@@]23C[C@H]4C(C)(C)[C@@]5(C[C@]4(CN2C1=O)NC3=O)C(=O)Nc1c5ccc2c1OC=CC(C)(C)O2	> 300 µM	–
CC(=O)O[C@H]1CC(=O)OC(C)(C)[C@@H]2CC[C@]3(C)[C@H](CC=C(C)[C@@]34C[C@]3(OC(C)=C(C)C3=O)C(=O)O4)[C@@]12C	113 µM	–
CC1(C)C=Cc2cc(C(=O)O)ccc2O1	252 µM	–
CN1C(=O)[C@@]23CCC(=O)N2C[C@@]12C[C@@]1(C(=O)Nc4c1ccc1c4C=CC(C)(C)O1)C(C)(C)[C@@H]2C3	150 µM	89.9 µM
C[C@H]1CN2C[C@]34C[C@@]5(C(=O)Nc6c5ccc5c6OC=CC(C)(C)O5)C(C)(C)[C@@H]3C[C@@]2(C1)C(=O)N4C	> 300 µM	105 µM
CC1=CC[C@@H]2[C@@]3(C)C=CC(=O)OC(C)(C)[C@@H]3CC[C@@]2(C)[C@]12Cc1c(c(C)c(C)oc1=O)O2	65.4 µM	–
CC1=CC[C@@H]2[C@@]3(C)[C@@H](O)CC(=O)OC(C)(C)[C@@H]3CC[C@@]2(C)[C@]12Cc1c(c(C)c(C)oc1=O)O2	> 300 µM	–
